# Reference: patent publication US20170190671A1, “BIS(ARYL)CATECHOL DERIVATIVES AS HERBICIDES” (E I DU PONT DE NEMOURS AND COMPANY, priority 2014, published 2017)
# Columns and labels:
# Settings in all cases: scale 0 to 100
# [1] = test system: wild oat (Avenafatua); test: Test D postemergence; assay type: in vivo, Avena fatua
# Source text: Seeds of plant species selected from bluegrass (annual bluegrass, Poa annua), blackgrass (Alopecurus myosuroides), canarygrass (Phalaris minor), chickweed (common chickweed, Stellaria media), cutleaf geranium (Geranium dissectum), galium (catchweed bedstraw, Galium aparine), downy bromegrass (Bromus tectorum), field poppy (Papaver rhoeas), field violet (Viola arvensis), green foxtail (Setaria viridis), deadnettle (henbit deadnettle, Lamium amplexicaule), Italian ryegrass (Lolium multiflorum), kochia (Kochia scoparia), lambsquarters (Chenopodium album), oilseed rape (Brassica napus), pigweed (Amaranthus retroflexus), chamomile (scentless chamomile, Matricaria inodora), Russian thistle (Salsola kali), speedwell (bird's-eye speedwell, Veronica persica), spring barley (Hordeum vulgare), spring wheat (Triticum aestivum), wild buckwheat (Polygonum convolvulus), wild mustard (Sinapis arvensis), wild oat (Avenafatua), wild radish (Raphanus raphanistrum), windgrass (Apera spica-venti), winter barley (Hordeum vulgare), and winter wheat (Triticum aestivum) were planted into a silt loam soil and treated preemergence with test chemicals formulated in a non-phytotoxic solvent mixture which included a surfactant.
# At the same time, these species were planted in pots containing Redi-Earth® planting medium (Scotts Company, 14111 Scottslawn Road, Marysville, Ohio 43041) comprising spaghnum peat moss, vermiculite, wetting agent and starter nutrients and treated with postemergence applications of the test chemicals formulated in the same manner. Plants ranged in height from 2 to 18 cm (1- to 4-leaf stage). Treated plants and controls were maintained in a controlled growth environment for 14 to 21 days after which time all species were compared to controls and visually evaluated. Plant response ratings, summarized in Table D, are based on a scale of 0 to 100 where 0 is no effect and 100 is complete control. A dash (-) response means no test result.
# [2] = test system: fall panicum (Panicum dichotomiflorum); test: Test E preemergence; assay type: in vivo
# How it was run: (§1)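 Visual ratings from 0 = no effect to 100 = complete control, scored against untreated controls after 14 to 21 days in the greenhouse. Compounds, in a non-phytotoxic solvent mix with surfactant, went onto silt loam soil right after sowing (preemergence) or onto 2–18 cm plants at the 1- to 4-leaf stage (postemergence).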
# [3] = test system: lambsquarters (Chenopodium album); test: Test E preemergence; assay type: in vivo
# How it was run: as §1
# [4] = test system: yellow nutsedge (Cyperus esculentus); test: Test E preemergence; assay type: in vivo
# How it was run: as §1
# [5] = test system: Brazilian crabgrass (Digitaria horizontalis); test: Test E postemergence; assay type: in vivo
# Source text: (§2) Seeds of plant species selected from corn (Zea mays), soybean (Glycine max), velvetleaf (Abutilon theophrasti), cocklebur (common cocklebur, Xanthium strumarium), lambsquarters (Chenopodium album), wild poinsettia (Euphorbia heterophylla), palmer pigweed (Amaranthus palmeri), waterhemp (common waterhemp, Amaranthus rudis), surinam grass (Brachiaria decumbens), large (Lg) crabgrass (Digitaria sanguinalis), Brazilian crabgrass (Digitaria horizontalis), fall panicum (Panicum dichotomiflorum), giant foxtail (Setaria faberii), green foxtail (Setaria viridis), goosegrass (Eleusine indica), johnsongrass (Sorghum halepense), ragweed (common ragweed, Ambrosia elatior), barnyardgrass (Echinochloa crus-galli), sandbur (southern sandbur, Cenchrus echinatus), arrowleaf sida (Sida rhombifolia), Italian ryegrass (Lolium multiflorum), dayflower (Virginia (VA) dayflower, Commelina virginica), field bindweed (Convolvulus arvensis), morningglory (Ipomoea coccinea), nightshade (eastern black nightshade, Solanum ptycanthum), kochia (Kochia scoparia), yellow nutsedge (Cyperus esculentus), horseweed (Conyza canadensis), and hairy beggarticks (Bidens pilosa), were planted into a silt loam soil and treated preemergence with test chemicals formulated in a non-phytotoxic solvent mixture which included a surfactant.
# (§3) At the same time, plants from these crop and weed species and also waterhemp_RES1, (ALS & Triazine resistant common waterhemp, Amaranthus rudis), and waterhemp_RES2, (ALS & HPPD resistant common waterhemp, Amaranthus rudis) were planted in pots containing Redi-Earth® planting medium (Scotts Company, 14111 Scottslawn Road, Marysville, Ohio 43041) comprising spaghnum peat moss, vermiculite, wetting agent and starter nutrients were treated with postemergence applications of test chemicals formulated in the same manner. Plants ranged in height from 2 to 18 cm for postemergence treatments (1- to 4-leaf stage). Treated plants and controls were maintained in a greenhouse for 14 to 21 days, after which time all species were compared to controls and visually evaluated. Plant response ratings, summarized in Table E, are based on a scale of 0 to 100 where 0 is no effect and 100 is complete control. A dash (-) response means no test result.
# [6] = test system: arrowleaf sida (Sida rhombifolia); test: Test E postemergence; assay type: in vivo
# Source text: as §2, §3
# [7] = test system: barnyardgrass (Echinochloa crus-galli); test: Test E postemergence; assay type: in vivo
# Source text: as §2, §3
# [8] = test system: dayflower (Virginia (VA) dayflower, Commelina virginica); test: Test E postemergence; assay type: in vivo
# Source text: as §2, §3
# [9] = test system: horseweed (Conyza canadensis); test: Test E postemergence; assay type: in vivo
# Source text: as §2, §3
# [10] = test system: kochia (Kochia scoparia); test: Test E postemergence; assay type: in vivo
# Source text: as §2, §3
# [11] = test system: sandbur (southern sandbur, Cenchrus echinatus); test: Test E postemergence; assay type: in vivo
# Source text: as §2, §3
# [12] = test system: soybean (Glycine max); test: Test E postemergence; assay type: in vivo
# Source text: as §2, §3
# [13] = test system: waterhemp (common waterhemp, Amaranthus rudis); test: Test E postemergence; assay type: in vivo
# Source text: as §2, §3
# [14] = test system: waterhemp_RES2 (ALS & HPPD resistant common waterhemp, Amaranthus rudis); test: Test E postemergence; assay type: in vivo
# Source text: as §2, §3
# [15] = test system: wild poinsettia (Euphorbia heterophylla); test: Test E postemergence; assay type: in vivo
# Source text: as §2, §3
structure (smiles),measurement,setting,value
"Fc1cccc(Oc2ncc(C(F)(F)F)cn2)c1Oc1ncc(Cl)cn1 [Compound 42, 5-chloro-2-[2-fluoro-6-[[5-(trifluoromethyl)-2-pyrimidinyl]oxy]phenoxy]pyrimidine]","Plant response rating, Oat, Wild",[1]; 16 g ai/ha,25
same,"Plant response rating, Oat, Wild",[1]; 31 g ai/ha,45
same,"Plant response rating, Oat, Wild",[1]; 62 g ai/ha,40
same,"Plant response rating, Oat, Wild",[1]; 125 g ai/ha,70
same,"Plant response rating, Panicum, Fall",[2]; 16 g ai/ha,0
same,"Plant response rating, Panicum, Fall",[2]; 31 g ai/ha,98
same,"Plant response rating, Panicum, Fall",[2]; 62 g ai/ha,100
same,"Plant response rating, Panicum, Fall",[2]; 125 g ai/ha,100
same,"Plant response rating, Lambsquarters",[3]; 16 g ai/ha,100
same,"Plant response rating, Lambsquarters",[3]; 31 g ai/ha,100
same,"Plant response rating, Lambsquarters",[3]; 62 g ai/ha,100
same,"Plant response rating, Lambsquarters",[3]; 125 g ai/ha,100
same,"Plant response rating, Nutsedge, Yellow",[4]; 16 g ai/ha,0
same,"Plant response rating, Nutsedge, Yellow",[4]; 31 g ai/ha,0
same,"Plant response rating, Nutsedge, Yellow",[4]; 62 g ai/ha,35
same,"Plant response rating, Nutsedge, Yellow",[4]; 125 g ai/ha,40
same,"Plant response rating, Crabgrass, Brazil",[5]; 16 g ai/ha,10
same,"Plant response rating, Crabgrass, Brazil",[5]; 31 g ai/ha,10
same,"Plant response rating, Crabgrass, Brazil",[5]; 62 g ai/ha,20
same,"Plant response rating, Crabgrass, Brazil",[5]; 125 g ai/ha,30
same,"Plant response rating, Arrowleaf Sida",[6]; 16 g ai/ha,75
same,"Plant response rating, Arrowleaf Sida",[6]; 31 g ai/ha,85
same,"Plant response rating, Arrowleaf Sida",[6]; 62 g ai/ha,95
same,"Plant response rating, Arrowleaf Sida",[6]; 125 g ai/ha,98
same,"Plant response rating, Barnyardgrass",[7]; 16 g ai/ha,0
same,"Plant response rating, Barnyardgrass",[7]; 31 g ai/ha,0
same,"Plant response rating, Barnyardgrass",[7]; 62 g ai/ha,10
same,"Plant response rating, Barnyardgrass",[7]; 125 g ai/ha,20
same,"Plant response rating, Dayflower, VA",[8]; 16 g ai/ha,35
same,"Plant response rating, Dayflower, VA",[8]; 31 g ai/ha,50
same,"Plant response rating, Dayflower, VA",[8]; 62 g ai/ha,70
same,"Plant response rating, Dayflower, VA",[8]; 125 g ai/ha,75
same,"Plant response rating, Horseweed",[9]; 16 g ai/ha,0
same,"Plant response rating, Horseweed",[9]; 31 g ai/ha,0
same,"Plant response rating, Horseweed",[9]; 62 g ai/ha,10
same,"Plant response rating, Horseweed",[9]; 125 g ai/ha,10
same,"Plant response rating, Kochia",[10]; 16 g ai/ha,70
same,"Plant response rating, Kochia",[10]; 31 g ai/ha,80
same,"Plant response rating, Kochia",[10]; 62 g ai/ha,95
same,"Plant response rating, Kochia",[10]; 125 g ai/ha,95
same,"Plant response rating, Sandbur",[11]; 16 g ai/ha,0
same,"Plant response rating, Sandbur",[11]; 31 g ai/ha,0
same,"Plant response rating, Sandbur",[11]; 62 g ai/ha,0
same,"Plant response rating, Sandbur",[11]; 125 g ai/ha,10
same,"Plant response rating, Soybean",[12]; 16 g ai/ha,50
same,"Plant response rating, Soybean",[12]; 31 g ai/ha,60
same,"Plant response rating, Soybean",[12]; 62 g ai/ha,95
same,"Plant response rating, Soybean",[12]; 125 g ai/ha,95
same,"Plant response rating, Waterhemp",[13]; 16 g ai/ha,75
same,"Plant response rating, Waterhemp",[13]; 31 g ai/ha,85
same,"Plant response rating, Waterhemp",[13]; 62 g ai/ha,90
same,"Plant response rating, Waterhemp",[13]; 125 g ai/ha,95
same,"Plant response rating, Waterhemp_RES2",[14]; 16 g ai/ha,50
same,"Plant response rating, Waterhemp_RES2",[14]; 31 g ai/ha,65
same,"Plant response rating, Waterhemp_RES2",[14]; 62 g ai/ha,85
same,"Plant response rating, Waterhemp_RES2",[14]; 125 g ai/ha,95
same,"Plant response rating, Poinsettia, Wild",[15]; 16 g ai/ha,50
same,"Plant response rating, Poinsettia, Wild",[15]; 31 g ai/ha,60
same,"Plant response rating, Poinsettia, Wild",[15]; 62 g ai/ha,70
same,"Plant response rating, Poinsettia, Wild",[15]; 125 g ai/ha,70
"Fc1cccc(Oc2ncc(Cl)cn2)c1Oc1ncc(C(F)(F)F)cn1 [Compound 43, 5-chloro-2-[5-fluoro-6-[[5-(trifluoromethyl)-2-pyrimidinyl]oxy]phenoxy]pyrimidine]","Plant response rating, Panicum, Fall",[2]; 31 g ai/ha,95
same,"Plant response rating, Panicum, Fall",[2]; 125 g ai/ha,100
same,"Plant response rating, Lambsquarters",[3]; 31 g ai/ha,95
same,"Plant response rating, Lambsquarters",[3]; 125 g ai/ha,100
same,"Plant response rating, Nutsedge, Yellow",[4]; 31 g ai/ha,0
same,"Plant response rating, Nutsedge, Yellow",[4]; 125 g ai/ha,25
same,"Plant response rating, Crabgrass, Brazil",[5]; 31 g ai/ha,25
same,"Plant response rating, Crabgrass, Brazil",[5]; 125 g ai/ha,40
same,"Plant response rating, Arrowleaf Sida",[6]; 31 g ai/ha,80
same,"Plant response rating, Arrowleaf Sida",[6]; 125 g ai/ha,95
same,"Plant response rating, Barnyardgrass",[7]; 31 g ai/ha,0
same,"Plant response rating, Barnyardgrass",[7]; 125 g ai/ha,15
same,"Plant response rating, Dayflower, VA",[8]; 31 g ai/ha,50
same,"Plant response rating, Dayflower, VA",[8]; 125 g ai/ha,70
same,"Plant response rating, Horseweed",[9]; 31 g ai/ha,0
same,"Plant response rating, Horseweed",[9]; 125 g ai/ha,10
same,"Plant response rating, Kochia",[10]; 31 g ai/ha,75
same,"Plant response rating, Kochia",[10]; 125 g ai/ha,95
same,"Plant response rating, Sandbur",[11]; 31 g ai/ha,0
same,"Plant response rating, Sandbur",[11]; 125 g ai/ha,10
same,"Plant response rating, Soybean",[12]; 31 g ai/ha,70
same,"Plant response rating, Soybean",[12]; 125 g ai/ha,95
same,"Plant response rating, Waterhemp",[13]; 31 g ai/ha,65
same,"Plant response rating, Waterhemp",[13]; 125 g ai/ha,95
same,"Plant response rating, Waterhemp_RES2",[14]; 31 g ai/ha,65
same,"Plant response rating, Waterhemp_RES2",[14]; 125 g ai/ha,80
same,"Plant response rating, Poinsettia, Wild",[15]; 31 g ai/ha,60
same,"Plant response rating, Poinsettia, Wild",[15]; 125 g ai/ha,75
